In DBAASP:
≈ marks a conversion by molar mass, not a printed value. Each block holds one compound with its values, some of them ahead of it.

Key:
Assay in all cases: ≥ marks a high value that may be exact or a test limit, other limits are often not marked, values filed in µg/mL are converted to µM
[1] = system: Escherichia coli K12 MG1655
[2] = system: Staphylococcus aureus 68 HER 1049
Escherichia coli MG1655 = system: Escherichia coli MG1655
Bacillus subtilis PS832 = system: Bacillus subtilis PS832
Acinetobacter baumannii = system: Acinetobacter baumannii
[3] = system: Enterococcus faecalis ATCC 29212
[4] = system: Bacillus subtilis ATCC 23857
[5] = system: Staphylococcus aureus 725
[6] = system: Pseudomonas aeruginosa 2760
[7] = system: Acinetobacter baumannii ATCC 19606
[8] = system: Escherichia coli ATCC 25922
[9] = system: Pseudomonas aeruginosa ATCC 27853
Escherichia coli 850 = system: Escherichia coli 850
[10] = system: Staphylococcus aureus 936
[11] = system: Klebsiella pneumoniae ATCC 700603
[12] = system: Staphylococcus aureus ATCC 25923
Escherichia coli 780 = system: Escherichia coli 780
[13] = system: Acinetobacter baumannii ATCC 17978
[14] = system: Staphylococcus aureus ATCC 9144
[15] = system: Escherichia coli NCTC 12923
[16] = system: Bacillus subtilis ATCC 13933
[17] = system: Pseudomonas aeruginosa PAO1
[18] = system: Candida albicans ATCC 90028
[19] = system: Staphylococcus aureus USA 300
[20] = system: Escherichia coli ATCC 700928
[21] = system: Klebsiella pneumoniae NCTC 13368
[22] = system: Staphylococcus aureus K35
Enterococcus faecium = system: Enterococcus faecium
[23] = system: Staphylococcus aureus K52
[24] = system: Escherichia coli DH5alpha
[25] = system: Escherichia coli NBRC 14237
[26] = system: Staphylococcus aureus NBRC 12732
[27] = system: Micrococcus luteus NBRC 12708
[28] = system: Pseudomonas aeruginosa NBRC 12582
[29] = system: Staphylococcus aureus JCM 2151

SMILES: CC[C@H](C)[C@H](NC(=O)[C@H](CCCN=C(N)N)NC(=O)[C@H](CCCN=C(N)N)NC(=O)[C@H](CC(C)C)NC(=O)[C@H](CCCCN)NC(=O)[C@H](CCCCN)NC(=O)[C@H](Cc1c[nH]c2ccccc12)NC(=O)[C@H](CCCCN)NC(=O)[C@H](CCCCN)NC(=O)[C@H](Cc1c[nH]c2ccccc12)NC(=O)[C@@H](N)Cc1ccc(O)cc1)C(=O)N[C@@H](Cc1ccccc1)C(=O)N[C@@H](CCSC)C(=O)N[C@@H](CC(C)C)C(=O)N[C@H](C(=O)O)C(C)C [YWKKWKKLRRIFMLV]
MIC [1]: 0.954 µM (≈ 2 µg/mL) | MIC [2]: 3.82 µM (≈ 8 µg/mL)

SMILES: CC[C@H](C)[C@H](NC(=O)CNC(=O)[C@@H](N)CCCCN)C(=O)N[C@@H](CCCN=C(N)N)C(=O)NCC(=O)N[C@@H](Cc1ccc(O)cc1)C(=O)N[C@@H](CCCCN)C(=O)NCC(=O)NCC(=O)N[C@@H](Cc1ccc(O)cc1)C(=O)N[C@@H](CS)C(=O)N[C@@H](CCCCN)C(=O)NCC(=O)N[C@@H](C)C(=O)N[C@@H](Cc1ccccc1)C(=O)N[C@@H](CCCCN)C(=O)N[C@@H](CCC(N)=O)C(=O)N[C@H](C(=O)N[C@@H](CS)C(=O)N[C@@H](CCCCN)C(=O)N[C@@H](CS)C(=O)N[C@@H](Cc1ccc(O)cc1)C(=O)O)[C@@H](C)O [KGIRGYKGGYCKGAFKQTCKCY]
MIC [13]: ≥ 52 µM | MIC [14]: ≥ 52 µM | MIC [15]: ≥ 52 µM | MIC [16]: ≥ 48.8 µM | MIC [17]: > 52 µM | MIC [18]: 1.9 µM (≈ 4.67 µg/mL) | MIC [19]: ≥ 52 µM | MIC [20]: ≥ 48.8 µM | MIC [21]: ≥ 52 µM

SMILES: CC(C)C[C@H](NC(=O)[C@H](CC(C)C)NC(=O)CNC(=O)[C@H](CO)NC(=O)[C@H](CC(C)C)NC(=O)[C@@H](NC(=O)[C@H](CCCN=C(N)N)NC(=O)CNC(=O)[C@H](CC(C)C)NC(=O)[C@H](CC(C)C)NC(=O)[C@@H]1CCCN1C(=O)[C@H](CC(C)C)NC(=O)[C@@H](N)Cc1ccccc1)C(C)C)C(N)=O [FLPLLGRVLSGLL]
MIC [22]: 2.8 µM (≈ 3.91 µg/mL) | MIC [3]: 10.5 µM (≈ 14.7 µg/mL) | MIC (Enterococcus faecium): 5.6 µM (≈ 7.82 µg/mL) | MIC [23]: 2.8 µM (≈ 3.91 µg/mL) | MIC [12]: 5.2 µM (≈ 7.26 µg/mL)

The next lines start with the values.

MIC (Escherichia coli MG1655): 8 µM (≈ 12.3 µg/mL) | MIC (Bacillus subtilis PS832): 8 µM (≈ 12.3 µg/mL)
SMILES: CC[C@H](C)[C@H](NC(=O)[C@H](CCCN=C(N)N)NC(=O)[C@H](CCCCN)NC(=O)[C@H](CC(C)C)NC(=O)[C@H](CC(C)C)NC(=O)CNC(=O)[C@H](Cc1cnc[nH]1)NC(=O)[C@H](CCCCN)NC(=O)[C@@H](N)CC(C)C)C(=O)N[C@@H](CCCCN)C(=O)N[C@H](C(=O)N[C@@H](CC(C)C)C(=O)N[C@@H](CC(C)C)C(N)=O)[C@@H](C)O [LKHGLLKRIKTLL]

MIC (Acinetobacter baumannii): ≥ 54.9 µM | MIC [3]: > 54.9 µM | MIC [4]: ≥ 54.9 µM | MIC [5]: ≥ 54.9 µM | MIC [6]: ≥ 54.9 µM | MIC [7]: 54.9 µM (≈ 128 µg/mL) | MIC [8]: > 54.9 µM | MIC [9]: 54.9 µM (≈ 128 µg/mL) | MIC (Escherichia coli 850): ≥ 54.9 µM | MIC [10]: ≥ 54.9 µM | MIC [11]: > 54.9 µM | MIC [12]: > 54.9 µM | MIC (Escherichia coli 780): ≥ 54.9 µM
SMILES: CC[C@H](C)[C@H](NC(=O)[C@H](CCCCN)NC(=O)[C@H](CCCCN)NC(=O)[C@@H]1CCCN1C(=O)[C@H](CC(C)C)NC(=O)[C@H](CCCCN)NC(=O)[C@H](C)NC(=O)[C@H](CC(C)C)NC(=O)[C@@H]1CCCN1C(=O)[C@H](CCCCN)NC(=O)[C@H](CC(C)C)NC(=O)[C@H](CC(N)=O)NC(=O)[C@@H](NC(=O)[C@H](CCCCN)NC(=O)[C@@H]1CCCN1C(=O)[C@H](CC(C)C)NC(=O)[C@H](CC(C)C)NC(=O)[C@H](Cc1ccc(O)cc1)NC(=O)CNC(=O)[C@H](C)N)[C@@H](C)CC)C(=O)N[C@@H](CC(C)C)C(N)=O [AGYLLPKINLKPLAKLPKKIL]

MIC [24]: ≥ 33.4 µM | MIC [25]: 12.5 µM (≈ 18.7 µg/mL) | MIC [26]: 12.5 µM (≈ 18.7 µg/mL) | MIC [27]: 25 µM (≈ 37.4 µg/mL) | MIC [28]: ≥ 50 µM | MIC [29]: 6.48 µM (≈ 9.69 µg/mL)
SMILES: CC[C@H](C)[C@H](NC(=O)[C@@H](N)Cc1ccccc1)C(=O)NCC(=O)N[C@@H](C)C(=O)N[C@@H](CC(C)C)C(=O)N[C@@H](CC(C)C)C(=O)N[C@@H](CCCN=C(N)N)C(=O)N1CCC[C@H]1C(=O)N[C@@H](C)C(=O)N[C@@H](CC(C)C)C(=O)N[C@@H](CCCCN)C(=O)N[C@@H](CC(C)C)C(=O)N[C@@H](CC(C)C)C(=O)N[C@@H](C)C(N)=O [FIGALLRPALKLLA]
